Paper PMC3508077 (Bioorganic & medicinal chemistry, 2012)

Tests used:
[1] = tested on: NAD(P)H:quinone reductase 1 (QR1); conditions: for Inducer class (monofunctional / bifunctional): from QR1 induction in Taoc1BP^rc1 and BP^rc1 mutants; for QR1 induction activity in the mutant cell lines (in words): Taoc1BP^rc1 and BP^rc1 mutant cell lines
[2] = tested on: NAD(P)H:quinone reductase 1 (QR1); test: cells; conditions: Mus musculus, 48 h, read-out: CD (concentration that doubles the activity)
[3] = tested on: NAD(P)H:quinone reductase 1 (QR1); conditions: cited from earlier work
[4] = target: T1, human aromatase (CYP19 enzyme) (Homo sapiens, UniProt P11511); conditions: cited from earlier work
T1 sequence (P11511 1-503): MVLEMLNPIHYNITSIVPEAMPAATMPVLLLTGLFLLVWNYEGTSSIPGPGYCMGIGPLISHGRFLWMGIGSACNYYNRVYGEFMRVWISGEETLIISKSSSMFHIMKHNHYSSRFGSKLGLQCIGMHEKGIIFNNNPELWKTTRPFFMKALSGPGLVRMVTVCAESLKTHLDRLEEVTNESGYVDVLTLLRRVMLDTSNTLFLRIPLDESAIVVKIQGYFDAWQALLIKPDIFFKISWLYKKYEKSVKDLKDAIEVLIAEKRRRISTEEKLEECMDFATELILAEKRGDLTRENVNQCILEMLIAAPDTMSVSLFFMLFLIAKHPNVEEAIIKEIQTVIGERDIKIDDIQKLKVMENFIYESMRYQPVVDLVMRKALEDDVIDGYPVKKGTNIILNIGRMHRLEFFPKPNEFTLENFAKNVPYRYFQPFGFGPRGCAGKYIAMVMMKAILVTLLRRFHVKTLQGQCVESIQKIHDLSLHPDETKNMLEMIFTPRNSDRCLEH

[5] = target: T1, human aromatase (CYP19 enzyme); conditions: read-out: Aromatase IC50
[6] = tested on: NF-κB; conditions: cited from earlier work
[7] = tested on: NAD(P)H:quinone reductase 1 (QR1); test: QR1 induction assay in Hepa 1c1c7 murine hepatoma cells; format: cell-based; conditions: Hepa 1c1c7 cells
[8] = tested on: NF-κB
[9] = tested on: inducible nitric oxide synthase (iNOS)

O=c1cc(-c2ccc(Br)cc2)oc2ccccc12 [4′-Bromoflavone, reference compound]
Inducer class (monofunctional / bifunctional) [1]: bifunctional

c1ccc(-c2nsc(-c3ccccc3)n2)cc1 [Compound 2, 3,5-Diphenyl-1,2,4-thiadiazole]
EC (2-fold QR1 activity) [2]: > 50 µM | CD value compared with resveratrol (times lower) [3]: 10 times | Activity as an aromatase inhibitor (in words) [4]: weak | IC50 [5]: 32.7 ± 3.8 µM | Activity as an inhibitor of NF-κB (in words) [6]: weak

Fc1ccccc1-c1nsc(-c2ccccc2F)n1 [Compound 3, 3,5-bis(2-fluorophenyl)-1,2,4-thiadiazole]
EC (2-fold QR1 activity) [2]: 29.4 ± 1.3 µM | CD (concentration that doubles QR1 activity) [3]: 1.8 µM | IR (QR1 induction ratio) [3]: 10.5

Fc1ccccc1-c1nsc(-c2ccccc2)n1 [Compound 6b, 3-(2-Fluorophenyl)-5-phenyl-1,2,4-thiadiazole]
EC (2-fold QR1 activity) [2]: > 50 µM

FC(F)(F)c1ccccc1-c1nc(-c2ccccc2)cs1 [Compound 9a, 4-Phenyl-2-[2-(trifluoromethyl)phenyl]thiazole]
EC (2-fold QR1 activity) [2]: > 50 µM | QR1 induction activity (in words) [7]: inactive

Clc1cccc(-c2nc(-c3ccccc3)cs2)c1Cl [Compound 9c, 2-(2,3-Dichlorophenyl)-4-phenylthiazole]
QR1 induction activity in the mutant cell lines (in words) [1]: active

Brc1cccc(-c2nc(-c3ccccc3)cs2)c1 [Compound 9d, 2-(3-Bromophenyl)-4-phenylthiazole]
EC (2-fold QR1 activity) [2]: > 50 µM

COc1cccc(-c2nc(-c3ccccc3)cs2)c1 [Compound 9e, 2-(3-Methoxyphenyl)-4-phenylthiazole]
EC (2-fold QR1 activity) [2]: > 50 µM | NF-κB inhibitory activity (in words) [8]: low micromolar | Inhibitory activity vs. iNOS (in words) [9]: weak | QR1 induction activity in the mutant cell lines (in words) [1]: not active

Cc1c(Cl)cccc1-c1nc(-c2ccccc2)cs1 [Compound 9f, 2-(3-Chloro-2-methylphenyl)-4-phenylthiazole]
EC (2-fold QR1 activity) [2]: > 50 µM

Clc1ccc(Cl)c(-c2nc(-c3ccccc3)cs2)c1 [Compound 9g, 2-(2,5-Dichlorophenyl)-4-phenylthiazole]
QR1 induction activity in the mutant cell lines (in words) [1]: active

Cc1ccc(Cl)cc1-c1nc(-c2ccccc2)cs1 [Compound 9h, 2-(5-Chloro-2-methylphenyl)-4-phenylthiazole]
Inducer class (monofunctional / bifunctional) [1]: monofunctional

Clc1cccc(Cl)c1-c1nc(-c2ccccc2)cs1 [Compound 9i, 2-(2,6-Dichlorophenyl)-4-phenylthiazole]
EC (2-fold QR1 activity) [2]: > 50 µM

Cc1cc(Cl)ccc1-c1nc(-c2ccccc2)cs1 [Compound 9j, 2-(4-Chloro-2-methylphenyl)-4-phenylthiazole]
Inducer class (monofunctional / bifunctional) [1]: monofunctional

Cc1ccc(-c2nc(-c3ccccc3)cs2)c(Br)c1 [Compound 9l, 2-(2-Bromo-4-methylphenyl)-4-phenylthiazole]
EC (2-fold QR1 activity) [2]: > 50 µM

CCCCc1ccc(-c2nc(-c3ccccc3)cs2)cc1 [Compound 9m, 2-(4-n-Butylphenyl)-4-phenylthiazole]
EC (2-fold QR1 activity) [2]: > 50 µM

COc1cccc(-c2csc(-c3ccccc3)n2)c1 [Compound 9n, 4-(3-Methoxyphenyl)-2-phenylthiazole]
NF-κB inhibitory activity (in words) [8]: weak | Inhibitory activity vs. iNOS (in words) [9]: weak | QR1 induction activity in the mutant cell lines (in words) [1]: not active

COc1cccc(-c2csc(-c3cccc(OC)c3)n2)c1 [Compound 9o]
NF-κB inhibitory activity (in words) [8]: weak | CD value compared with that of resveratrol (times better) [7]: 241 times | QR1 induction activity in the mutant cell lines (in words) [1]: not active

COc1cccc(-c2csc(-c3cccc(Cl)c3C)n2)c1 [Compound 9p, 2-(3-Chloro-2-methylphenyl)-4-(3-methoxyphenyl)thiazole]
EC (2-fold QR1 activity) [2]: > 50 µM

COc1cccc(-c2csc(-c3cccc(Cl)c3Cl)n2)c1 [Compound 9q, 2-(2,3-Dichlorophenyl)-4-(3-methoxyphenyl)thiazole]
EC (2-fold QR1 activity) [2]: > 50 µM | QR1 induction activity in the mutant cell lines (in words) [1]: did not display activity

COc1cccc(-c2csc(-c3cccc(F)c3F)n2)c1 [Compound 9r, 2-(2,3-Difluorophenyl)-4-(3-methoxyphenyl)thiazole]
EC (2-fold QR1 activity) [2]: > 50 µM

COc1cccc(-c2csc(-c3ccc(C)cc3Br)n2)c1 [Compound 9t, 2-(2-Bromo-4-methylphenyl)-4-(3-methoxyphenyl)thiazole]
EC (2-fold QR1 activity) [2]: > 50 µM

COc1cccc(-c2csc(-c3cc(Cl)ccc3C)n2)c1 [Compound 9u, 2-(5-Chloro-2-methylphenyl)-4-(3-methoxyphenyl)thiazole]
Inducer class (monofunctional / bifunctional) [1]: monofunctional

CCCCc1ccc(-c2nc(-c3cccc(OC)c3)cs2)cc1 [Compound 9v, 2-(4-n-Butylphenyl)-4-(3-methoxyphenyl)thiazole]
EC (2-fold QR1 activity) [2]: > 50 µM

COc1cccc(-c2csc(-c3cccc(Br)c3)n2)c1 [Compound 9w, 2-(3-Bromophenyl)-4-(3-methoxyphenyl)thiazole]
EC (2-fold QR1 activity) [2]: > 50 µM

COc1cccc(-c2csc(-c3cccc(OC)c3F)n2)c1 [Compound 13a, 2-(2-Fluoro-3-methoxyphenyl)-4-(3-methoxyphenyl)thiazole]
EC (2-fold QR1 activity) [2]: > 50 µM | QR1 induction activity (in words) [7]: inactive

COc1cccc(-c2csc(-c3cc(OC)ccc3F)n2)c1 [Compound 13b, 2-(2-Fluoro-5-methoxyphenyl)-4-(3-methoxyphenyl)thiazole]
EC (2-fold QR1 activity) [2]: > 50 µM | QR1 induction activity (in words) [7]: inactive

COc1cccc(-c2noc(-c3cccc(OC)c3)n2)c1 [Compound 15]
EC (2-fold QR1 activity) [2]: > 50 µM

COc1cccc(-c2nsc(-c3cccc(OC)c3)n2)c1 [Compound 16]
EC (2-fold QR1 activity) [2]: > 50 µM
